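1) Cells in 96-well plates. 2) Compound, 48 h, 5 concentrations. 3) Linear interpolation between surrounding doses. 4) Unreached endpoint = highest concentration. GI50 marks 50% less growth. TGI denotes the concentration required for complete inhibition of growth.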
Columns and labels:
Experiment in all cases: NCI-60 cell line screen, 48 h
HCT-116 colon = tested on: HCT-116 colon
NCI-H522 lung = tested on: NCI-H522 lung
SNB-19 CNS = tested on: SNB-19 CNS
UACC-257 melanoma = tested on: UACC-257 melanoma
SK-MEL-28 melanoma = tested on: SK-MEL-28 melanoma
EKVX NSCLC = tested on: EKVX NSCLC
SK-OV-3 ovarian = tested on: SK-OV-3 ovarian
SK-MEL-5 melanoma = tested on: SK-MEL-5 melanoma
UACC-62 melanoma = tested on: UACC-62 melanoma
DLD-1 colon = tested on: DLD-1 colon
M19-MEL melanoma = tested on: M19-MEL melanoma
LXFL 529 NSCLC = tested on: LXFL 529 NSCLC
M14 melanoma = tested on: M14 melanoma
HL-60(TB) leukemia = tested on: HL-60(TB) leukemia
U251 CNS = tested on: U251 CNS
CCRF-CEM leukemia = tested on: CCRF-CEM leukemia
OVCAR-5 ovarian = tested on: OVCAR-5 ovarian
DMS 273 small cell lung = tested on: DMS 273 small cell lung
TK-10 renal = tested on: TK-10 renal
SNB-78 CNS = tested on: SNB-78 CNS
SNB-75 CNS = tested on: SNB-75 CNS
HOP-92 NSCLC = tested on: HOP-92 NSCLC
XF 498 CNS = tested on: XF 498 CNS
KM12 colon = tested on: KM12 colon
UO-31 renal = tested on: UO-31 renal
HOP-62 NSCLC = tested on: HOP-62 NSCLC
NCI-H226 lung = tested on: NCI-H226 lung
SF-268 CNS = tested on: SF-268 CNS
IGROV1 ovarian = tested on: IGROV1 ovarian
A549 NSCLC = tested on: A549 NSCLC
CAKI-1 renal = tested on: CAKI-1 renal
ACHN renal = tested on: ACHN renal
OVCAR-3 ovarian = tested on: OVCAR-3 ovarian
NCI-H23 lung = tested on: NCI-H23 lung
HCT-15 colon = tested on: HCT-15 colon
KM20L2 colon = tested on: KM20L2 colon
LOX IMVI melanoma = tested on: LOX IMVI melanoma
OVCAR-8 ovarian = tested on: OVCAR-8 ovarian
RPMI-8226 leukemia = tested on: RPMI-8226 leukemia
NCI-H460 lung = tested on: NCI-H460 lung
SN12C renal = tested on: SN12C renal
OVCAR-4 ovarian = tested on: OVCAR-4 ovarian
HOP-18 NSCLC = tested on: HOP-18 NSCLC
COLO 205 colon = tested on: COLO 205 colon
RXF 393 renal = tested on: RXF 393 renal
786-0 renal = tested on: 786-0 renal
SK-MEL-2 melanoma = tested on: SK-MEL-2 melanoma
HCC-2998 colon = tested on: HCC-2998 colon
K-562 leukemia = tested on: K-562 leukemia
SF-295 CNS = tested on: SF-295 CNS
SF-539 CNS = tested on: SF-539 CNS
SW-620 colon = tested on: SW-620 colon
HT29 colon = tested on: HT29 colon
MOLT-4 leukemia = tested on: MOLT-4 leukemia
SR leukemia = tested on: SR leukemia
A498 renal = tested on: A498 renal
DMS 114 small cell lung = tested on: DMS 114 small cell lung
MALME-3M melanoma = tested on: MALME-3M melanoma

## CC(=O)OCC(CC[CH2][Sn]([Cl])([Cl])[c]1ccccc1)OC(C)=O (configuration not stated)
HCT-116 colon
  GI50: 18 µM
  TGI: 31.9 µM
NCI-H522 lung
  GI50: 41.1 µM
  TGI: 55.6 µM
SNB-19 CNS
  GI50: 27.7 µM
  TGI: 74.6 µM
UACC-257 melanoma
  GI50: 32.2 µM
  TGI: 95.4 µM
SK-MEL-28 melanoma
  GI50: 40.9 µM
  TGI: 58.6 µM
EKVX NSCLC
  GI50: 44.4 µM
  TGI: > 100 µM
SK-OV-3 ovarian
  GI50: 21.1 µM
  TGI: 44.2 µM
SK-MEL-5 melanoma
  GI50: 21.5 µM
  TGI: 55.5 µM
UACC-62 melanoma
  GI50: 12.6 µM
  TGI: 25.6 µM
DLD-1 colon
  GI50: 21.2 µM
  TGI: 47.2 µM
M19-MEL melanoma
  GI50: 25.1 µM
  TGI: 62.1 µM
LXFL 529 NSCLC
  GI50: 14 µM
  TGI: 27 µM
M14 melanoma
  GI50: 16.2 µM
  TGI: 29.7 µM
HL-60(TB) leukemia
  GI50: 16.8 µM
  TGI: 42.6 µM
U251 CNS
  GI50: 20.4 µM
  TGI: 38.5 µM
CCRF-CEM leukemia
  GI50: 21.3 µM
  TGI: 68.6 µM
OVCAR-5 ovarian
  GI50: 15.7 µM
  TGI: 42 µM
DMS 273 small cell lung
  GI50: 20.6 µM
  TGI: 43.3 µM
TK-10 renal
  GI50: 27.5 µM
  TGI: > 100 µM
SNB-78 CNS
  GI50: 27.5 µM
  TGI: 48.7 µM
SNB-75 CNS
  GI50: 55.8 µM
  TGI: > 100 µM
HOP-92 NSCLC
  GI50: 17.1 µM
  TGI: 33.4 µM
XF 498 CNS
  GI50: 17.8 µM
  TGI: 32.2 µM
KM12 colon
  GI50: 17.8 µM
  TGI: 33.2 µM
UO-31 renal
  GI50: 17.2 µM
  TGI: 33 µM
HOP-62 NSCLC
  GI50: 23.9 µM
  TGI: 46.8 µM
NCI-H226 lung
  GI50: 30.7 µM
  TGI: > 100 µM
SF-268 CNS
  GI50: 18.6 µM
  TGI: 33.9 µM
IGROV1 ovarian
  GI50: 25.5 µM
  TGI: 68.8 µM
A549 NSCLC
  GI50: 21.9 µM
  TGI: 53 µM
CAKI-1 renal
  GI50: 14.6 µM
  TGI: 30.9 µM
ACHN renal
  GI50: 23.9 µM
  TGI: 42.6 µM
OVCAR-3 ovarian
  GI50: 20 µM
  TGI: 42.8 µM
NCI-H23 lung
  GI50: 19.5 µM
  TGI: 39.4 µM
HCT-15 colon
  GI50: 17.4 µM
  TGI: 32.1 µM
KM20L2 colon
  GI50: 24.8 µM
  TGI: 52 µM
LOX IMVI melanoma
  GI50: 16.8 µM
  TGI: 31.6 µM
OVCAR-8 ovarian
  GI50: 17.5 µM
  TGI: 32.9 µM
RPMI-8226 leukemia
  GI50: 22.9 µM
  TGI: 58.9 µM
NCI-H460 lung
  GI50: 19.6 µM
  TGI: 38.8 µM
SN12C renal
  GI50: 21 µM
  TGI: 41 µM
OVCAR-4 ovarian
  GI50: 16.4 µM
  TGI: 31.4 µM
HOP-18 NSCLC
  GI50: 16.5 µM
  TGI: 40 µM
COLO 205 colon
  GI50: 17.3 µM
  TGI: 31.2 µM
RXF 393 renal
  GI50: 18.5 µM
  TGI: 34.2 µM
786-0 renal
  GI50: 19.1 µM
  TGI: 38 µM
SK-MEL-2 melanoma
  GI50: 18.8 µM
  TGI: 36.4 µM
HCC-2998 colon
  GI50: 28.2 µM
  TGI: 83.1 µM
K-562 leukemia
  GI50: 24.9 µM
  TGI: 71.8 µM
SF-295 CNS
  GI50: 24.5 µM
  TGI: 60 µM
SF-539 CNS
  GI50: 22 µM
  TGI: 42.5 µM
SW-620 colon
  GI50: 16.7 µM
  TGI: 30.3 µM
HT29 colon
  GI50: 32.3 µM
  TGI: 94.9 µM
MOLT-4 leukemia
  GI50: 22 µM
  TGI: 63.7 µM
SR leukemia
  GI50: 10.7 µM
  TGI: 50.4 µM

## Oc1cccnc1/C=N/OCc1ccccc1
A498 renal
  TGI: > 100 µM
HCT-116 colon
  TGI: > 100 µM
NCI-H522 lung
  TGI: > 100 µM
SNB-19 CNS
  TGI: > 100 µM
UACC-257 melanoma
  TGI: > 100 µM
EKVX NSCLC
  TGI: > 100 µM
SK-OV-3 ovarian
  TGI: > 100 µM
SK-MEL-5 melanoma
  TGI: > 100 µM
UACC-62 melanoma
  TGI: > 100 µM
DLD-1 colon
  TGI: > 100 µM
M19-MEL melanoma
  TGI: > 100 µM
LXFL 529 NSCLC
  TGI: > 100 µM
M14 melanoma
  TGI: > 100 µM
HL-60(TB) leukemia
  TGI: > 100 µM
U251 CNS
  TGI: > 100 µM
CCRF-CEM leukemia
  TGI: > 100 µM
OVCAR-5 ovarian
  TGI: > 100 µM
DMS 273 small cell lung
  TGI: > 100 µM
TK-10 renal
  TGI: > 100 µM
SNB-78 CNS
  TGI: > 100 µM
SNB-75 CNS
  TGI: > 100 µM
XF 498 CNS
  TGI: > 100 µM
KM12 colon
  TGI: > 100 µM
UO-31 renal
  TGI: > 100 µM
HOP-62 NSCLC
  TGI: > 100 µM
NCI-H226 lung
  TGI: > 100 µM
SF-268 CNS
  TGI: > 100 µM
IGROV1 ovarian
  TGI: > 100 µM
A549 NSCLC
  TGI: > 100 µM
CAKI-1 renal
  TGI: > 100 µM
ACHN renal
  TGI: > 100 µM
OVCAR-3 ovarian
  TGI: > 100 µM
HCT-15 colon
  TGI: > 100 µM
KM20L2 colon
  TGI: > 100 µM
LOX IMVI melanoma
  TGI: > 100 µM
OVCAR-8 ovarian
  TGI: > 100 µM
RPMI-8226 leukemia
  TGI: > 100 µM
NCI-H460 lung
  TGI: > 100 µM
SN12C renal
  TGI: > 100 µM
COLO 205 colon
  TGI: > 100 µM
RXF 393 renal
  TGI: 72.8 µM
786-0 renal
  TGI: > 100 µM
SK-MEL-2 melanoma
  TGI: > 100 µM
HCC-2998 colon
  TGI: > 100 µM
K-562 leukemia
  TGI: > 100 µM
DMS 114 small cell lung
  TGI: > 100 µM
SF-295 CNS
  TGI: > 100 µM
SF-539 CNS
  TGI: > 100 µM
MALME-3M melanoma
  TGI: > 100 µM
SW-620 colon
  TGI: > 100 µM
HT29 colon
  TGI: > 100 µM
MOLT-4 leukemia
  TGI: > 100 µM

Source: PubChem BioAssay (NCI)
